Laboratory results reported in ChEMBL document CHEMBL4385651, “Identification and characterization of the first fragment hits for SETDB1 Tudor domain” (Bioorg Med Chem, 2019).
Calls of active or inactive are those of the source. The rule behind the calls is not given here. Where a SMILES comes first, the peptide text is derived from it. [ ]: non-standard residue; d: D form. The star is where a group is joined. X1 = CC(=O)NCc1ccccc1-n1c(C)nnc1CN*; Lys(Me2) = CN(C)CCCC[C@H](N)C(=O)O

What was measured:
[1] = biological target: T1, Histone-lysine N-methyltransferase SETDB1 (Homo sapiens, UniProt Q15047); experiment: Binding affinity to N-terminal His6-tagged human SETDB1 Tudor domain (197 to 403 residues) expressed in Escherichia coli BL21(DE3)-pRARE2 cells assessed as induction of HSQC shift at 5 mM by 1H-15 N HSQC-TROSY NMR spectroscopy
[2] = biological target: T1, Histone-lysine N-methyltransferase SETDB1; experiment: Binding affinity to N-terminally biotinylated human SETDB1 Tudor domain (197 to 403 residues) expressed in Escherichia coli BL21(DE3)-pRARE2 cells by SPR analysis
[3] = biological target: T1, Histone-lysine N-methyltransferase SETDB1; experiment: Binding affinity to N-terminal His6-tagged human SETDB1 Tudor domain (197 to 403 residues) expressed in Escherichia coli BL21(DE3)-pRARE2 cells by ITC assay
[4] = biological target: T1, Histone-lysine N-methyltransferase SETDB1; experiment: Binding affinity to N-terminal His6-tagged human SETDB1 Tudor domain (197 to 403 residues) expressed in Escherichia coli BL21(DE3)-pRARE2 cells assessed as induction of HSQC shift at 10 mM by 1H-15 N HSQC-TROSY NMR spectroscopy

Activity [1]	Kd [2]	Activity [4]	SMILES	Kd [3]
Active	3.5 mM		CC(=O)NCc1ccccc1-n1c(C)nnc1C	3.5 mM
inactive			CNC(=O)NCc1ccccc1-n1c(C)nnc1C	
	2.7 mM		CC(=O)NCc1cc(Br)ccc1-n1c(C)nnc1C	
	7.7 mM		CC(=O)NCc1cc(C)ccc1-n1c(C)nnc1C	
	2.5 mM		CC(=O)NCc1cc(Cl)ccc1-n1c(C)nnc1C	
		> 0.2 ppm	CC(C)(C)NC(=O)[C@@H]1Cc2ccccc2CN1	
Active	1.27 mM		CC(=O)NCc1ccccc1-n1c(C)nnc1CNC(=O)CNC(=O)[C@@H](NC(=O)[C@H](CO)NC(=O)[C@@H](N)CCCCN(C)C)[C@@H](C)O (H-[Lys(Me2)]STG-X1)	
inactive			Cc1nnc(C)n1-c1ccccc1C(=O)O	
Active			Cc1nnc2n1-c1ccccc1COC2	
	10 mM		CC(=O)NCc1cc(C#N)ccc1-n1c(C)nnc1C	

SMILES	Activity [1]	Kd [2]	Activity [4]	Kd [3]
Cc1nnc(C)n1-c1ccccc1CNS(C)(=O)=O	Active	4 to 17 mM		4 to 17 mM
